The results in this text go back to patent publication US11345710B2, “Imidazo[1,2-b]pyrimido[4,5-d]pyridazin-5(6H)-ones and the use thereof” (IMPACT THERAPEUTICS (SHANGHAI), INC, priority 2017, dated 2022).

Like-named read-outs stand apart in the source and are kept apart here.

One test concerns the target Wee1 kinase (h) (Homo sapiens, UniProt P30291). The test can be described thus: Wee1 kinase (h) detection method, [γ-33P]-ATP filter assay. In kind it is biochemical. To be noted: 10 μM ATP, 40 minutes at room temperature. The method, then:
Wee1 kinase (h) was incubated with 20 mM Tris/HCl pH 8.5, 0.2 mM EDTA, 500 μM […], 10 mM MgAcetate and 10 μM [γ-^33P]-ATP. Then the stock solution of all compounds under test with 50× concentration in 100% DMSO was added to make the final concentration of 1/0.1/0.01 μM, and then mixed the mixture well. The reaction was initiated by the addition of the Mg/ATP mix. After incubation for 40 minutes at room temperature, the reaction was stopped by the addition of phosphoric acid to a concentration of 0.5%. 10 μL of the reaction liquor was then spotted onto a P30 filtermat and washed four times in 0.425% phosphoric acid and once in methanol prior to drying and scintillation counting. Each compound sample was duplicated in duplicate. The negative control was lack of all the components of Wee1 enzyme, and the positive was addition of 30% phosphoric acid to terminate the reaction. The Wee1 inhibitor AZD1775 was detected at 10/0.01 μM at the same experiment condition.

A further test concerns LoVo cells. The test can be described thus: MTT based cell viability assay on LoVo cells. The following applies: Homo sapiens, 72 h, read-out: IC50, growth inhibition on LoVo cells. The method, then:
Determination of the Cell Growth Inhibiting Activity of 6-(2,6-dichlorophenyl)-2-((4-(4-methylpiperazin-1-yl)phenyl)amino)imidazo[1,2-b]pyrimido[4,5-d]pyridazin-5(6H)-one and Analogs Thereof on LoVo Cells Using a MTT Based Cell Viability Assay
The thawed LoVo cells were cultured and passaged to the third generation, and the growth state was good and the confluence was about 90%, which began to be used in the experiment. The LoVo cells were digested with trypsin, centrifuged at 800 rpm for 5 min, the supernatant was discarded, resuspended with fresh culture medium, and counted. 6000 Cells are seeded to each well of a 96-well cell culture plate. The cells were incubated at 37° C. in a 5% CO2 cell culture incubator overnight. The tested sample (including the tested compound and the reference compound AZD1775) was diluted continuously to 8 concentrations (the last concentration was negative control of DMSO) with a 1:3 and 1:10 dilution in DMSO respectively: 10 μM, 3.3 μM, 1 μM, 0.33 μM, 0.1 μM, 0.033 μM, 0.01 μM, 0 μM (the final concentration of DMSO was 1%). 5 μL of each concentration was added to 120 μL of culture medium (25 times diluted), and the mixture was shaken well. The overnight cells were taken and the culture medium was removed, 195 μL of fresh culture medium was added to each well, and 5 μL of diluted culture medium containing the corresponding concentration of the tested sample was added respectively, and the culture plate was then placed in the 5% CO2 cell culture incubator at 37° C. for 3 d. After removing the original solution and adding 100 μL of fresh serum-free DMEM culture medium containing MTT (0.5 mg/mL) per well, the culture was continued. The original solution was removed after 4 hrs and 100 μl DMSO was added to each well. The 96-well cell culture plates were shaken away from light for 10 min and readed in a multifunctional reader at 552/630/690 nm to give absorption values (OD values). The data were analyzed using a graphic software (Graph Pad Prism 5.0) and the inhibitory activity of the compound on cell proliferation was plotted in terms of cell survival and compound concentration. The IC50 values were fitted by the S-shaped dose-response curve equation as follows: Y=100/(1+10^(Log C−Log IC50)), where C was the concentration of testing compounds.

A further test relates to NCI-H1299 cells. The test can be described thus: MTT based cell viability assay on NCI-H1299 cells. To be noted: Homo sapiens, read-out: IC50, growth inhibition on NCI-H1299 cells. The method, then: Determination of the Cell Growth Inhibiting Activity of 6-(2,6-dichlorophenyl)-2-((4-(4-methylpiperazin-1-yl)phenyl)amino)imidazo[1,2-b]pyrimido[4,5-d]pyridazin-5(6H)-one and Analogs on NCI-H1299 Cells Using a MTT Based Cell Viability Assay
The thawed NCI-H1299 cells were cultured and passaged to the third generation, and the growth state was good and the confluence was about 90%, which began to be used in the experiment. The NCI-H1299 cells were digested with trypsin, centrifuged at 800 rpm for 5 min, the supernatant was discarded, resuspended with fresh culture medium, and counted. 1000 Cells are seeded to each well of a 96-well plate. The cells are incubated at 37° C. in a 5% CO2 cell culture incubator overnight. The tested sample (including the tested compound and the reference compound AZD1775) was diluted continuously to 8 concentrations (the last concentration was negative control of DMSO) with a 1:3 and 1:10 dilution in DMSO respectively: 10 μM, 3.3 μM, 1 μM, 0.33 μM, 0.1 μM, 0.033 μM, 0.01 μM, 0 μM (the final concentration of DMSO was 1%). 5 μL of each concentration was added to 120 μL of culture medium (25 times diluted), and the mixture was shaken well. The overnight cells were taken and the culture medium was removed, 195 μL of fresh culture medium was added to each well, and 5 μL of diluted culture medium containing the corresponding concentration of the tested sample was added respectively, and the culture plate was then placed in the 5% CO2 cell culture incubator at 37° C. for 3 d. After removing the original solution and adding 100 μL of fresh serum-free DMEM culture medium containing MTT (0.5 mg/mL) per well, the culture was continued. The original solution was removed after 4 hrs and 100 μl DMSO was added to each well. The 96-well cell culture plates were shaken away from light for 10 min and readed in a multifunctional reader at 552/630/690 nm to give absorption values (OD values). The data were analyzed using a graphic software (Graph Pad Prism 5.0) and the inhibitory activity of the compound on cell proliferation was plotted in terms of cell survival and compound concentration. The IC50 values were fitted by the S-shaped dose-response curve equation as follows: Y=100/(1+10^(Log C−Log IC50)), where C was the concentration of testing compounds.

The mark [1] stands for this setting: 72 h, NCI-H1299 cells, 3 d, MTT.

Chain of Wee1 kinase (h) (P30291 whole entry): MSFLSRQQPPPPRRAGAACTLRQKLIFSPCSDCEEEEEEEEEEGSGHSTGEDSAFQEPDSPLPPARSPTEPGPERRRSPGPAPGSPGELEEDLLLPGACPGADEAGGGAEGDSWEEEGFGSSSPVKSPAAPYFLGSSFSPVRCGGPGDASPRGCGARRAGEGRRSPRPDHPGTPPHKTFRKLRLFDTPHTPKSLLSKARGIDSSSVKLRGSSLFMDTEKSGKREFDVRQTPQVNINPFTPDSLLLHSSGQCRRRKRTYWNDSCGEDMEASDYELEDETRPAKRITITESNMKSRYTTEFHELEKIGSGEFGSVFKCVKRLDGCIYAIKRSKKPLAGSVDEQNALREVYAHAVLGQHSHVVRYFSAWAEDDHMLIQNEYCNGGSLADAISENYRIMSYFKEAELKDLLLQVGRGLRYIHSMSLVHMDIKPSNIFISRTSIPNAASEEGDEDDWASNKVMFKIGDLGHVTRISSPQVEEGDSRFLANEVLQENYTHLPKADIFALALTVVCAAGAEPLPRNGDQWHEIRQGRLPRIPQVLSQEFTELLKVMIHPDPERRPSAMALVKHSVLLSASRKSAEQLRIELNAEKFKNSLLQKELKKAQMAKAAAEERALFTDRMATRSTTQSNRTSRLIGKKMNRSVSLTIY

As to `Cc1cnc2c3nc(Nc4ccc(N5CCN(C)CC5)c(Cl)c4)ncc3c(=O)n(-c3c(Cl)cccc3Cl)n12` [Example 56, 6-(2,6-dichlorophenyl)-2-((3-chloro-4-(4-methylpiperazin-1-yl)phenyl)amino)-8-methylimidazo[1,2-b]pyrimido[4,5-d]pyridazin-5(6H)-one], the “Inh. (%) of Wee1 kinase” value at Wee1 kinase (h) (C 1 μm) is 95%. The half-maximal inhibitory concentration (IC50) worked out at 434 nM in the test on LoVo cells (LoVo cells, 3 d, MTT) and 540 nM in the test with NCI-H1299 cells (setting [1]).

Consider `CN1CCN(c2ccc(Nc3ncc4c(=O)n(-c5c(F)cccc5Cl)n5ccnc5c4n3)cc2)CC1` [Example 7, 6-(2-chloro-6-fluorophenyl)-2-((4-(4-methylpiperazin-1-yl)phenyl)amino)imidazo[1,2-b]pyrimido[4,5-d]pyridazin-5(6H)-one], for which the “Inh. (%) of Wee1 kinase” value on Wee1 kinase (h) (C 1 μm) is 92%. The IC50 in the test with LoVo cells (LoVo cells, 3 d, MTT) was determined as 831 nM; in the test on NCI-H1299 cells (setting [1]), 781 nM.

As to `Cc1cc(Nc2ncc3c(=O)n(-c4c(Cl)cccc4Cl)n4ccnc4c3n2)cc(C)c1N1CCN(C)CC1` [Example 4, 6-(2,6-dichlorophenyl)-2-((3,5-dimethyl-4-(4-methylpiperazin-1-yl)phenyl)amino)imidazo[1,2-b]pyrimido[4,5-d]pyridazin-5(6H)-one], the figures for the “Inh. (%) of Wee1 kinase” value at Wee1 kinase (h) (C 0.01 μm), at Wee1 kinase (h) (C 0.1 μm) and on Wee1 kinase (h) (C 1 μm) were 16%, 73% and 96%, respectively. Besides, the 50% inhibitory concentration (IC50) in the test with LoVo cells (LoVo) is 339 nM; in the test on NCI-H1299 cells (NCI-H1299, 72 h), 383 nM.

For the compound `CCc1cn2c(n1)c1nc(Nc3ccc(N4CCN(C)CC4)c(C)c3)ncc1c(=O)n2-c1c(Cl)cccc1Cl` [Example 60, 6-(2,6-dichlorophenyl)-2-((3-methyl-4-(4-methylpiperazin-1-yl)phenyl)amino)-9-ethylimidazo[1,2-b]pyrimido[4,5-d]pyridazin-5(6H)-one], the IC50 in the test on LoVo cells (LoVo cells, 3 d, MTT) stood at 325 nM; in the test with NCI-H1299 cells (setting [1]), 161 nM.

Turning to `C[C@@H]1CN(c2ccc(Nc3ncc4c(=O)n(-c5c(Cl)cccc5Cl)n5ccnc5c4n3)cc2F)C[C@H](C)N1C` [Example 31, 6-(2,6-dichlorophenyl)-2-((3-fluoro-4-((3S,5R)-3,4,5-trimethylpiperazin-1-yl)phenyl)amino)imidazo[1,2-b]pyrimido[4,5-d]pyridazin-5(6H)-one], the IC50 in the test on LoVo cells (LoVo) amounted to 809 nM; with NCI-H1299 cells (NCI-H1299, 72 h), 672 nM.

As to `Cc1cc(Nc2ncc3c(=O)n(-c4c(F)cccc4Cl)n4ccnc4c3n2)ccc1N1C[C@@H](C)N(C)[C@@H](C)C1` [Example 24, 6-(2-chloro-6-fluorophenyl)-2-((3-methyl-4-((3S,5R)-3,4,5-trimethylpiperazin-1-yl)phenyl)amino)imidazo[1,2-b]pyrimido[4,5-d]pyridazin-5(6H)-one], the 50% inhibitory concentration (IC50) turned out to be 359 nM in the test on LoVo cells (LoVo cells, 3 d, MTT) and 328 nM in the test with NCI-H1299 cells (setting [1]).

With `Cc1cc(Nc2ncc3c(=O)n(-c4c(Cl)cccc4Br)n4ccnc4c3n2)ccc1N1CCC(N(C)C)CC1` [Example 49, 6-(2-bromo-6-chlorophenyl)-2-((3-methyl-4-(4-(dimethylamino)piperidin-1-yl)phenyl)amino)imidazo[1,2-b]pyrimido[4,5-d]pyridazin-5(6H)-one], the “Inh. (%) of Wee1 kinase” value on Wee1 kinase (h) (C 1 μm) is recorded as 91%. Besides, the IC50 with LoVo cells (LoVo cells, 3 d, MTT) is 272 nM; with NCI-H1299 cells (setting [1]), 337 nM.

Take `Cc1cc(Nc2ncc3c(=O)n(-c4c(F)cccc4F)n4ccnc4c3n2)cc(C)c1N1CCN(C)CC1` [Example 13, 6-(2,6-difluorophenyl)-2-((3,5-dimethyl-4-(4-methylpiperazin-1-yl)phenyl)amino)imidazo[1,2-b]pyrimido[4,5-d]pyridazin-5(6H)-one]: the “Inh. (%) of Wee1 kinase” value at Wee1 kinase (h) (C 1 μm) was 85%. The 50% inhibitory concentration (IC50) in the test on LoVo cells (LoVo cells, 3 d, MTT) turned out to be 488 nM; with NCI-H1299 cells (setting [1]), 738 nM.

On to `CN1CCN(c2ccc(Nc3ncc4c(=O)n(-c5c(Cl)cccc5Br)n5ccnc5c4n3)cc2Cl)CC1` [Example 47, 6-(2-bromo-6-chlorophenyl)-2-((3-chloro-4-(4-methylpiperazin-1-yl)phenyl)amino)imidazo[1,2-b]pyrimido[4,5-d]pyridazin-5(6H)-one], for which the “Inh. (%) of Wee1 kinase” value at Wee1 kinase (h) (C 1 μm) amounted to 96%. Further, the IC50 with LoVo cells (LoVo cells, 3 d, MTT) was determined as 370 nM; in the test with NCI-H1299 cells (setting [1]) it was 562 nM.

Consider `C[C@@H]1CN(c2ccc(Nc3ncc4c(=O)n(-c5c(Cl)cccc5Cl)n5ccnc5c4n3)cc2)C[C@H](C)N1C` [Example 30, 6-(2,6-dichlorophenyl)-2-((4-((3S,5R)-3,4,5-trimethylpiperazin-1-yl)phenyl)amino)imidazo[1,2-b]pyrimido[4,5-d]pyridazin-5(6H)-one], for which the half-inhibitory concentration (IC50) in the test on LoVo cells (LoVo) was determined as 779 nM; with NCI-H1299 cells (NCI-H1299, 72 h), 508 nM.

`Cc1cc(Nc2ncc3c(=O)n(-c4c(Cl)cccc4Cl)n4ccnc4c3n2)ccc1C1CCN(C)CC1` [Example 41, 6-(2,6-dichlorophenyl)-2-((3-methyl-4-(1-methylpiperidin-4-yl)phenyl)amino)imidazo[1,2-b]pyrimido[4,5-d]pyridazin-5(6H)-one]: the IC50 in the test with LoVo cells (LoVo) amounted to 212 nM; in the test with NCI-H1299 cells (NCI-H1299, 72 h) it was 184 nM.

Consider `Cc1cc(Nc2ncc3c(=O)n(-c4c(Cl)cccc4Cl)n4ccnc4c3n2)ccc1N1C[C@@H](C)N(C)[C@@H](C)C1` [Example 33, 6-(2,6-dichlorophenyl)-2-((3-methyl-4-((3S,5R)-3,4,5-trimethylpiperazin-1-yl)phenyl)amino)imidazo[1,2-b]pyrimido[4,5-d]pyridazin-5(6H)-one], for which the IC50 is 394 nM in the test on LoVo cells (LoVo) and 237 nM in the test on NCI-H1299 cells (NCI-H1299, 72 h).

For `C[C@@H]1CN(c2ccc(Nc3ncc4c(=O)n(-c5c(Cl)cccc5Cl)n5ccnc5c4n3)cc2Cl)C[C@H](C)N1C` [Example 32, 6-(2,6-dichlorophenyl)-2-((3-chloro-4-((3S,5R)-3,4,5-trimethylpiperazin-1-yl)phenyl)amino)imidazo[1,2-b]pyrimido[4,5-d]pyridazin-5(6H)-one], the IC50 in the test with LoVo cells (LoVo) came out at 679 nM; in the test with NCI-H1299 cells (NCI-H1299, 72 h), 515 nM.

By IC50 is commonly meant the concentration that inhibits the measured activity by half.
